# Earlier results, collected in patent publication US20070254070A1, “Encapsulating Plant Extracts Adsorbed and/or Absorbed in Precipitated Silica” (AXISS FRANCE S.A.S., priority 2004, published 2007).
# System: bacteria
smiles,measurement,value
Cc1ccc(C(C)C)cc1O [carvacrol],action on bacteria,bactericidal
